Results from PubChem BioAssay (NCI).
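Step 1: Grow cells in 96-well plates. Step 2: Expose to compound for 48 hours at 5 concentrations. Step 3: Interpolate endpoints linearly; if unreached, use highest concentration. TGI denotes the concentration required for complete inhibition of growth.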

What was measured:
Experiment in all cases: growth of human tumour cells (NCI), 48 h
NCI-H23 lung = test system: NCI-H23 lung
SK-MEL-28 melanoma = test system: SK-MEL-28 melanoma
CCRF-CEM leukemia = test system: CCRF-CEM leukemia
K-562 leukemia = test system: K-562 leukemia
KM12 colon = test system: KM12 colon
DU-145 prostate = test system: DU-145 prostate
NCI-H522 lung = test system: NCI-H522 lung
SR leukemia = test system: SR leukemia
OVCAR-8 ovarian = test system: OVCAR-8 ovarian

COc1ccc(S(=O)(=O)Nc2ccc(-c3csc(N4C(=O)/C(=C/C=C\c5ccccc5)N=C4c4ccccc4)n3)cc2)cc1Cl
TGI (NCI-H23 lung): 42.4 µM | TGI (SK-MEL-28 melanoma): > 100 µM | TGI (CCRF-CEM leukemia): > 100 µM | TGI (K-562 leukemia): > 100 µM | TGI (KM12 colon): 97.1 µM | TGI (DU-145 prostate): 91.6 µM | TGI (NCI-H522 lung): 47.3 µM | TGI (SR leukemia): > 100 µM | TGI (OVCAR-8 ovarian): 88.4 µM

Cc1ccc(C2=Nn3c(nc4sc(-c5ccccc5)cc4c3=O)SC2)cc1
TGI (NCI-H23 lung): > 100 µM | TGI (SK-MEL-28 melanoma): > 100 µM | TGI (CCRF-CEM leukemia): > 100 µM | TGI (K-562 leukemia): > 100 µM | TGI (KM12 colon): > 100 µM | TGI (DU-145 prostate): > 100 µM | TGI (NCI-H522 lung): > 100 µM | TGI (SR leukemia): > 100 µM | TGI (OVCAR-8 ovarian): > 100 µM

COC(=O)CCc1ccc2c(c1)CC1(C2)Cc2ccc(CCC(=O)OC)cc2C1
TGI (NCI-H23 lung): > 100 µM | TGI (CCRF-CEM leukemia): 97.1 µM | TGI (K-562 leukemia): > 100 µM | TGI (KM12 colon): > 100 µM | TGI (NCI-H522 lung): > 100 µM | TGI (SR leukemia): 61.5 µM | TGI (OVCAR-8 ovarian): > 100 µM

COc1ccc(NC(=O)C2=C(SC)C(=O)N=C2N)cc1
TGI (NCI-H23 lung): > 100 µM | TGI (SK-MEL-28 melanoma): > 100 µM | TGI (CCRF-CEM leukemia): > 100 µM | TGI (K-562 leukemia): > 100 µM | TGI (KM12 colon): > 100 µM | TGI (DU-145 prostate): > 100 µM | TGI (SR leukemia): > 100 µM | TGI (OVCAR-8 ovarian): > 100 µM

CC1=CC(c2ccccc2)n2c(nc3cc4ccccc4cc32)N1 (centres undefined)
TGI (NCI-H23 lung): > 100 µM | TGI (SK-MEL-28 melanoma): > 100 µM | TGI (CCRF-CEM leukemia): > 100 µM | TGI (K-562 leukemia): > 100 µM | TGI (KM12 colon): > 100 µM | TGI (DU-145 prostate): > 100 µM | TGI (SR leukemia): > 100 µM | TGI (OVCAR-8 ovarian): > 100 µM

CSC1(SC)CCCCCCCCCCC1
TGI (NCI-H23 lung): > 100 µM | TGI (SK-MEL-28 melanoma): > 100 µM | TGI (CCRF-CEM leukemia): 48.6 µM | TGI (K-562 leukemia): > 100 µM | TGI (KM12 colon): > 100 µM | TGI (DU-145 prostate): > 100 µM | TGI (NCI-H522 lung): 34.9 µM | TGI (SR leukemia): > 100 µM | TGI (OVCAR-8 ovarian): > 100 µM

CN1C(=O)[C@@]2(C=CC3(CC2)OCCO3)c2ccccc21
TGI (NCI-H23 lung): > 50 µM | TGI (SK-MEL-28 melanoma): > 50 µM | TGI (CCRF-CEM leukemia): > 50 µM | TGI (K-562 leukemia): > 50 µM | TGI (KM12 colon): > 50 µM | TGI (DU-145 prostate): > 50 µM | TGI (NCI-H522 lung): > 32.4 µM | TGI (SR leukemia): > 50 µM | TGI (OVCAR-8 ovarian): > 50 µM

Clc1ncc(C(Cl)(Cl)Cl)nc1-c1ccccc1
TGI (NCI-H23 lung): 6.07 µM | TGI (SK-MEL-28 melanoma): 60.6 µM | TGI (CCRF-CEM leukemia): > 100 µM | TGI (K-562 leukemia): 12.4 µM | TGI (KM12 colon): 3.43 µM | TGI (DU-145 prostate): 2.96 µM | TGI (NCI-H522 lung): 6.72 µM | TGI (SR leukemia): 10.9 µM | TGI (OVCAR-8 ovarian): 7.16 µM

c1ccc(COc2ncccc2C2SCCCS2)cc1
TGI (NCI-H23 lung): > 100 µM | TGI (SK-MEL-28 melanoma): > 100 µM | TGI (CCRF-CEM leukemia): > 100 µM | TGI (K-562 leukemia): > 100 µM | TGI (KM12 colon): > 100 µM | TGI (DU-145 prostate): > 100 µM | TGI (NCI-H522 lung): > 100 µM | TGI (SR leukemia): > 100 µM | TGI (OVCAR-8 ovarian): > 100 µM

N#Cc1nnc2c3c(-c4ccc(Cl)cc4)c(C#N)c(=O)[nH]c3nn2c1N
TGI (NCI-H23 lung): 24 µM | TGI (SK-MEL-28 melanoma): 44.5 µM | TGI (CCRF-CEM leukemia): > 100 µM | TGI (K-562 leukemia): > 41.6 µM | TGI (KM12 colon): 28.5 µM | TGI (DU-145 prostate): 16.8 µM | TGI (NCI-H522 lung): 6.11 µM | TGI (SR leukemia): 16.7 µM | TGI (OVCAR-8 ovarian): 14 µM

CSc1s[s+]c(SC)c1-c1ccccc1
TGI (NCI-H23 lung): 34.7 µM | TGI (CCRF-CEM leukemia): 81.4 µM | TGI (K-562 leukemia): 50.3 µM | TGI (KM12 colon): 33.8 µM | TGI (DU-145 prostate): > 100 µM | TGI (NCI-H522 lung): 27.9 µM | TGI (OVCAR-8 ovarian): 40.3 µM

CN(C)CCn1c(=O)c2ccc(NCCNCCO)c3c(=O)c4cc(O)ccc4n(c1=O)c23
TGI (NCI-H23 lung): 3.64 µM | TGI (SK-MEL-28 melanoma): 17 µM | TGI (CCRF-CEM leukemia): 2.05 µM | TGI (K-562 leukemia): > 30.5 µM | TGI (KM12 colon): 26.6 µM | TGI (DU-145 prostate): 4.97 µM | TGI (NCI-H522 lung): 3.58 µM | TGI (SR leukemia): 0.619 µM | TGI (OVCAR-8 ovarian): 7.47 µM

CC(=O)OCC1OC(n2c3c(c(-c4ccco4)c(C#N)c2=S)CCCC3)C(OC(C)=O)C(OC(C)=O)C1OC(C)=O (centres undefined)
TGI (NCI-H23 lung): > 31.6 µM | TGI (SK-MEL-28 melanoma): > 31.6 µM | TGI (KM12 colon): > 31.6 µM | TGI (DU-145 prostate): > 31.6 µM | TGI (NCI-H522 lung): > 31.6 µM | TGI (SR leukemia): > 31.6 µM | TGI (OVCAR-8 ovarian): > 100 µM

C=C1C(=O)O[C@H]2C(=O)[C@H](C)CCC[C@@](C)(O)/C=C\C[C@@]3(C)O[C@@H]3C[C@@H]12
TGI (NCI-H23 lung): 68.8 µM | TGI (CCRF-CEM leukemia): 12.3 µM | TGI (KM12 colon): 39.3 µM | TGI (DU-145 prostate): 27.6 µM | TGI (NCI-H522 lung): 9.08 µM | TGI (OVCAR-8 ovarian): 48 µM

CC(=O)Nc1ncc2c(n1)-c1ccccc1OC2
TGI (NCI-H23 lung): > 100 µM | TGI (CCRF-CEM leukemia): > 100 µM | TGI (KM12 colon): > 100 µM | TGI (DU-145 prostate): > 100 µM | TGI (NCI-H522 lung): > 100 µM | TGI (SR leukemia): > 100 µM | TGI (OVCAR-8 ovarian): > 100 µM

COc1cccc(N2N=C3c4ccccc4-n4c(nc5ccccc54)C3C2N)c1 (centres undefined)
TGI (NCI-H23 lung): > 100 µM | TGI (SK-MEL-28 melanoma): > 100 µM | TGI (KM12 colon): > 100 µM | TGI (DU-145 prostate): > 100 µM | TGI (NCI-H522 lung): > 100 µM | TGI (SR leukemia): > 100 µM | TGI (OVCAR-8 ovarian): > 100 µM

C=CC1(CCC(Br)C(C)(C)Cl)CO1 (centres undefined)
TGI (SK-MEL-28 melanoma): > 10 µM | TGI (CCRF-CEM leukemia): > 10 µM | TGI (K-562 leukemia): > 10 µM | TGI (KM12 colon): > 10 µM | TGI (DU-145 prostate): > 10 µM | TGI (NCI-H522 lung): > 10 µM | TGI (OVCAR-8 ovarian): > 10 µM

COc1ccccc1OC/C(N=Cc1ccncc1)=N/NC(=O)c1ccncc1
TGI (NCI-H23 lung): > 100 µM | TGI (SK-MEL-28 melanoma): > 100 µM | TGI (CCRF-CEM leukemia): > 100 µM | TGI (K-562 leukemia): > 100 µM | TGI (KM12 colon): > 100 µM | TGI (DU-145 prostate): > 100 µM | TGI (NCI-H522 lung): > 100 µM | TGI (OVCAR-8 ovarian): > 100 µM

Cc1cnc2[nH]c(-c3ccccc3)cc(=O)c2c1
TGI (NCI-H23 lung): > 13.5 µM | TGI (SK-MEL-28 melanoma): > 100 µM | TGI (CCRF-CEM leukemia): 2.79 µM | TGI (KM12 colon): 13.9 µM | TGI (DU-145 prostate): > 100 µM | TGI (NCI-H522 lung): 0.526 µM | TGI (SR leukemia): > 100 µM | TGI (OVCAR-8 ovarian): 0.629 µM

O=C(O)c1ccc(Nc2cnc3ccc(C(F)(F)F)cc3n2)cc1
TGI (NCI-H23 lung): 33.5 µM | TGI (SK-MEL-28 melanoma): > 100 µM | TGI (CCRF-CEM leukemia): 43.1 µM | TGI (K-562 leukemia): 51.4 µM | TGI (KM12 colon): 31.4 µM | TGI (DU-145 prostate): 69.5 µM | TGI (SR leukemia): 43.8 µM | TGI (OVCAR-8 ovarian): 41.2 µM

O=C(Cc1nc2ccc([N+](=O)[O-])cc2[nH]c1=O)C(=O)Nc1cc(Cl)c(Cl)cc1Cl
TGI (NCI-H23 lung): > 100 µM | TGI (SK-MEL-28 melanoma): > 100 µM | TGI (CCRF-CEM leukemia): > 100 µM | TGI (KM12 colon): > 100 µM | TGI (DU-145 prostate): > 100 µM | TGI (NCI-H522 lung): > 100 µM | TGI (SR leukemia): > 100 µM | TGI (OVCAR-8 ovarian): > 100 µM

CCOP(=O)(OCC)C(F)(F)CC1CCCCC1
TGI (NCI-H23 lung): > 10 µM | TGI (SK-MEL-28 melanoma): > 10 µM | TGI (CCRF-CEM leukemia): > 10 µM | TGI (K-562 leukemia): > 10 µM | TGI (KM12 colon): > 10 µM | TGI (DU-145 prostate): > 10 µM | TGI (SR leukemia): > 10 µM | TGI (OVCAR-8 ovarian): > 10 µM

c1csc(-c2ccc(-c3ccc(-c4cccs4)s3)s2)c1
TGI (NCI-H23 lung): > 100 µM | TGI (SK-MEL-28 melanoma): > 100 µM | TGI (KM12 colon): > 100 µM | TGI (DU-145 prostate): > 100 µM | TGI (NCI-H522 lung): > 100 µM | TGI (SR leukemia): > 100 µM | TGI (OVCAR-8 ovarian): > 100 µM

CCOC(=O)Cc1nc2c(=O)[nH]cnc2n1C1OC(COC(C)=O)C(OC(C)=O)C1OC(C)=O (centres undefined)
TGI (NCI-H23 lung): > 100 µM | TGI (SK-MEL-28 melanoma): > 100 µM | TGI (CCRF-CEM leukemia): > 100 µM | TGI (K-562 leukemia): > 100 µM | TGI (KM12 colon): > 100 µM | TGI (DU-145 prostate): > 100 µM | TGI (NCI-H522 lung): > 100 µM | TGI (OVCAR-8 ovarian): > 100 µM

C/C(=N\O)c1ccc(Nc2c3ccccc3nc3occc23)cc1
TGI (NCI-H23 lung): > 10.8 µM | TGI (SK-MEL-28 melanoma): > 18.5 µM | TGI (CCRF-CEM leukemia): 1.89 µM | TGI (K-562 leukemia): > 50 µM | TGI (KM12 colon): 27.4 µM | TGI (DU-145 prostate): > 15.3 µM | TGI (NCI-H522 lung): 0.287 µM | TGI (OVCAR-8 ovarian): 7.34 µM
